Test systems include MDA-MB-435; A498 renal; U251 CNS; HS 578T breast; NCI/ADR-RES ovarian; HT29 colon; SN12C renal; UACC-62 melanoma; HOP-62 NSCLC; UO-31 renal.
Assay in all cases: inhibition of tumour cell growth, NCI panel, 48 h

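Test compounds were applied to cells in 96-well plates for 48 hours at 5 doses. GI50 = concentration required for 50% inhibition of growth. Definition used: TGI = concentration required for complete inhibition of growth.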

For the molecule `COC1C=COC2(C)Oc3c(C)c(O)c4c(c3C2=O)/C(=N/C2CCC(O)OC2C)C=C(NC(=O)/C(C)=C\C(=O)C2CC2C(O)C(C)C(O)C(C)C(OC(C)=O)C1C)C4=O` (stereo not given), the TGI in the experiment on MDA-MB-435 was 3.64 µM; with A498 renal, 8.36 µM; with U251 CNS, 8.3 µM; in the experiment on HS 578T breast, 8.38 µM; in the experiment with NCI/ADR-RES ovarian, 50.4 µM; with HT29 colon, 2.71 µM. For the same molecule, the TGI turned out to be 3.24 µM in the experiment with SN12C renal, 4.3 µM with UACC-62 melanoma, 8.75 µM in the experiment on HOP-62 NSCLC and 5.59 µM in the experiment on UO-31 renal.
`O=C(OCc1ccc2ccccc2n1)c1cn(C2CC2)c2cc(N3CCN(Cc4ccc5ccccc5n4)CC3)c(F)cc2c1=O`: the GI50 in the experiment with MDA-MB-435 is 39.4 µM; in the experiment on A498 renal, 25.2 µM; in the experiment on U251 CNS it was 56.7 µM; in the experiment with HS 578T breast it was 40.6 µM; in the experiment on NCI/ADR-RES ovarian, 61.5 µM; with HT29 colon, 58.2 µM. Also, the GI50 in the experiment on SN12C renal is above 100 µM; with UACC-62 melanoma, 46.1 µM; in the experiment on HOP-62 NSCLC, above 53.8 µM; in the experiment with UO-31 renal it was above 100 µM. The TGI in the experiment with MDA-MB-435 is above 100 µM; with A498 renal it was above 82.1 µM; with U251 CNS, above 100 µM; in the experiment on HS 578T breast it was above 100 µM; in the experiment with NCI/ADR-RES ovarian, above 100 µM; in the experiment on HT29 colon, above 100 µM. The TGI with SN12C renal was above 100 µM; in the experiment with UACC-62 melanoma, above 100 µM; in the experiment on HOP-62 NSCLC it was above 95.2 µM; in the experiment with UO-31 renal, above 100 µM.
As for `CN1CCN(C(=O)c2cc(-c3ccc4ncnc(N5CCc6cc(F)c(Cl)cc65)c4c3)cnc2N)CC1`, the GI50 was 0.201 µM with MDA-MB-435; 0.104 µM in the experiment with A498 renal; 0.348 µM in the experiment on U251 CNS; 0.116 µM in the experiment on HS 578T breast; 0.723 µM with NCI/ADR-RES ovarian; 0.216 µM in the experiment on HT29 colon. The GI50 in the experiment on SN12C renal was 0.15 µM; in the experiment on UACC-62 melanoma, 0.177 µM; in the experiment with HOP-62 NSCLC, 0.244 µM; in the experiment with UO-31 renal it was 0.0996 µM. Also, the TGI in the experiment with MDA-MB-435 is 1.2 µM; with A498 renal, 0.361 µM; in the experiment on U251 CNS, 5.71 µM; with HS 578T breast, 0.491 µM; in the experiment on NCI/ADR-RES ovarian, 10.2 µM; with HT29 colon, 4.57 µM. Also, the TGI in the experiment with SN12C renal was determined as 10.5 µM; in the experiment with UACC-62 melanoma, 0.67 µM; with HOP-62 NSCLC, 4.46 µM; with UO-31 renal, 4.42 µM.
As to `O=C(O)c1ccc(C(=O)c2ccccc2)c(C(=O)O)c1`, the TGI in the experiment with MDA-MB-435, with A498 renal, in the experiment with U251 CNS, in the experiment on HS 578T breast, in the experiment with NCI/ADR-RES ovarian and in the experiment with HT29 colon was above 100 µM in each case. For the same molecule, the TGI in the experiment with SN12C renal, with UACC-62 melanoma, with HOP-62 NSCLC and in the experiment on UO-31 renal was above 100 µM in each case.
Turning to `CCOc1ccccc1C(=O)N1CCN(c2cc(Cl)cc(Cl)c2)CC1`, the GI50 was 0.0157 µM in the experiment with MDA-MB-435; 0.0288 µM in the experiment on A498 renal; 0.0407 µM in the experiment on U251 CNS; 0.0327 µM in the experiment with HS 578T breast; 0.0231 µM in the experiment with NCI/ADR-RES ovarian; 0.0316 µM in the experiment on HT29 colon. For the same molecule, the GI50 in the experiment on SN12C renal was 0.0493 µM; in the experiment on UACC-62 melanoma it was 0.0203 µM; in the experiment with HOP-62 NSCLC, 0.0416 µM; with UO-31 renal it was 0.0978 µM. Further, the TGI was found to be 0.0527 µM with MDA-MB-435; 4.36 µM in the experiment on A498 renal; 14.3 µM in the experiment with U251 CNS; 16.4 µM with HS 578T breast; 5.64 µM in the experiment with NCI/ADR-RES ovarian; 2.29 µM in the experiment on HT29 colon. The TGI in the experiment with SN12C renal came to 14.7 µM; in the experiment on UACC-62 melanoma it was 16 µM; in the experiment on HOP-62 NSCLC, 15.8 µM; in the experiment on UO-31 renal, 16 µM.
In the case of `COc1ccc2cc1Oc1ccc(cc1)C[C@H]1c3c(cc4c(c3Oc3cc5c(cc3OC)CCN(C)[C@@H]5C2)OCO4)CCN1C`, the GI50 was 1.03 µM in the experiment on MDA-MB-435; 5.93 µM in the experiment with A498 renal; 0.832 µM in the experiment on U251 CNS; 7.76 µM with HS 578T breast; 6.02 µM in the experiment with NCI/ADR-RES ovarian; 0.237 µM in the experiment on HT29 colon. Moreover, the GI50 with SN12C renal is 3.55 µM; in the experiment with UACC-62 melanoma, 1.81 µM; with HOP-62 NSCLC, 2.98 µM; in the experiment with UO-31 renal, 5.41 µM. Further, the TGI was 6.12 µM with MDA-MB-435; 12.1 µM in the experiment on A498 renal; 5.52 µM with U251 CNS; 46.2 µM in the experiment on HS 578T breast; 15.9 µM in the experiment on NCI/ADR-RES ovarian; 2.56 µM in the experiment on HT29 colon. Moreover, the TGI with SN12C renal came out at 10.6 µM; with UACC-62 melanoma, 6.16 µM; in the experiment with HOP-62 NSCLC, 9.6 µM; with UO-31 renal, 11.7 µM.
Regarding `C[C@@H]1CN(Cc2ccc(F)cc2)[C@@H](C)CN1C(=O)c1cc2c(C(=O)C(=O)N(C)C)cn(C)c2cc1Cl`, the GI50 is 15 µM in the experiment with MDA-MB-435; 9.9 µM in the experiment with A498 renal; 17.4 µM in the experiment with U251 CNS; 19.8 µM with HS 578T breast; 14.9 µM with NCI/ADR-RES ovarian; 14 µM with HT29 colon. The GI50 in the experiment on SN12C renal was 15.7 µM; in the experiment with UACC-62 melanoma it was 5.86 µM; in the experiment on HOP-62 NSCLC it was 18.7 µM; in the experiment with UO-31 renal it was 15.3 µM. In addition, the TGI in the experiment on MDA-MB-435 was determined as 35.1 µM; in the experiment on A498 renal it was 43.8 µM; in the experiment on U251 CNS, 46.1 µM; in the experiment on HS 578T breast it was 62.8 µM; in the experiment on NCI/ADR-RES ovarian it was 52.7 µM; in the experiment with HT29 colon it was 36.3 µM. In addition, the TGI with SN12C renal was 43.5 µM; with UACC-62 melanoma, 23.9 µM; in the experiment with HOP-62 NSCLC it was 48.9 µM; with UO-31 renal it was above 81.9 µM.
Consider `COc1ccc(-c2[nH]c3ccccc3c2-c2ccc(OC)cc2)cc1`, for which the GI50 with MDA-MB-435 was 1.79 µM; in the experiment on A498 renal, 4 µM; in the experiment with U251 CNS, 4.54 µM; in the experiment with HS 578T breast, 4.41 µM; in the experiment on NCI/ADR-RES ovarian, 3.82 µM; with HT29 colon, 2.99 µM. Besides, the GI50 in the experiment on SN12C renal was 6.73 µM; in the experiment with UACC-62 melanoma it was 6.25 µM; in the experiment on HOP-62 NSCLC it was 10.2 µM; in the experiment with UO-31 renal, 3.29 µM. The TGI was found to be 4.58 µM in the experiment with MDA-MB-435; 12.8 µM with A498 renal; 16.8 µM with U251 CNS; 43.8 µM in the experiment with HS 578T breast; 15 µM in the experiment on NCI/ADR-RES ovarian; 11.9 µM in the experiment on HT29 colon. For the same molecule, the TGI in the experiment with SN12C renal turned out to be 23.5 µM; in the experiment on UACC-62 melanoma, 22 µM; in the experiment on HOP-62 NSCLC it was 26.2 µM; in the experiment with UO-31 renal it was 15.5 µM.

The values above are taken from PubChem BioAssay (NCI).
